Like-named read-outs stand apart in the source and are kept apart here. No end group written: not given here.
T1: human TAS1R2-C9S/TAS1R3-WT (Homo sapiens, UniProt Q7RTX0+Q8TE23)
T1 construct: expressed in transfected cells; host or cells: HEK293T-Gα16gust44
T1 sequence (Q8TE23 20-839): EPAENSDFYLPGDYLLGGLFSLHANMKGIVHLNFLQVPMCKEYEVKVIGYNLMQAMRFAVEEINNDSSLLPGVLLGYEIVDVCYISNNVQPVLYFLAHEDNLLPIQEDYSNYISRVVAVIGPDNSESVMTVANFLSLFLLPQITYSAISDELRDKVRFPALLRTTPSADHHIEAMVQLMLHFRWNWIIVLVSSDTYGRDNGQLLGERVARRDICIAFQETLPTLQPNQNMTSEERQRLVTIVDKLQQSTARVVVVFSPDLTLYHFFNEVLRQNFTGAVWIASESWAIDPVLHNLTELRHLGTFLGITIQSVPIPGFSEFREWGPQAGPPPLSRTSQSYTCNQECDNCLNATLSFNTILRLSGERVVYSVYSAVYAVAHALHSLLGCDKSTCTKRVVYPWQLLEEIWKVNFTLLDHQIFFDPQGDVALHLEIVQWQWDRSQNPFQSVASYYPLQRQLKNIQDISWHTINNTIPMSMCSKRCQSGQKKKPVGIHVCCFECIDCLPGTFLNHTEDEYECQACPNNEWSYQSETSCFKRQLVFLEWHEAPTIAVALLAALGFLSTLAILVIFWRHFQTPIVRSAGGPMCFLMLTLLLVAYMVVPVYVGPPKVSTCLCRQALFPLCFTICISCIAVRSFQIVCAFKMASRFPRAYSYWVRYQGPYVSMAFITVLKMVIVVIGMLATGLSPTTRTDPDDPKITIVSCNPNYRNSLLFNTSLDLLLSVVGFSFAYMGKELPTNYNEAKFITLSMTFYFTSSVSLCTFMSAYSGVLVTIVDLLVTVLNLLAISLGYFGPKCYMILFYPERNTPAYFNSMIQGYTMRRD
T1 sequence (Q7RTX0 21-852): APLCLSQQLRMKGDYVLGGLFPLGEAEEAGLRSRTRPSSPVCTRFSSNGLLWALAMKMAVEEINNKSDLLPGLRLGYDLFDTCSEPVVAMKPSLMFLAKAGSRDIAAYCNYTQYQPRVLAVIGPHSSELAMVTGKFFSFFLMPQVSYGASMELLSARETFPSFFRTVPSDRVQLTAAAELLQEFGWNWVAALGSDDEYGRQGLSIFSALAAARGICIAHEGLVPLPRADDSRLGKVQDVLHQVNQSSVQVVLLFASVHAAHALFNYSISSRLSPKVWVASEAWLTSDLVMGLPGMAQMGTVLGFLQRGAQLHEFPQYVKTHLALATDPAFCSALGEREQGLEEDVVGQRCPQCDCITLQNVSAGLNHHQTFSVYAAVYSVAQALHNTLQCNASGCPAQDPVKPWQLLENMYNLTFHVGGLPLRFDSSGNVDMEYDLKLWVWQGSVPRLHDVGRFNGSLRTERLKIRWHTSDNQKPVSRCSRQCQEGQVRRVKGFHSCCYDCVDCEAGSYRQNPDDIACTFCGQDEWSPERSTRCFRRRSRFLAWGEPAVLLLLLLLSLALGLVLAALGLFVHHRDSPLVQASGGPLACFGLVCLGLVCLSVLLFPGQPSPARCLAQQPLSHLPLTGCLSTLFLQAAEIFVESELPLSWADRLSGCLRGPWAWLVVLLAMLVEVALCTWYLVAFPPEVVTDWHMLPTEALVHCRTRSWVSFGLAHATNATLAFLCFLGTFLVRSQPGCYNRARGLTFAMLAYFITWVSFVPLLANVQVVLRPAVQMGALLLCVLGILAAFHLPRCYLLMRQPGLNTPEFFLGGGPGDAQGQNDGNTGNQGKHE

T2: human TAS1R2-WT/TAS1R3-WT (Homo sapiens, UniProt Q7RTX0+Q8TE23)
T2 construct: expressed in transfected cells; host or cells: HEK293T-Gα16gust44
T2 sequence (Q8TE23 20-839): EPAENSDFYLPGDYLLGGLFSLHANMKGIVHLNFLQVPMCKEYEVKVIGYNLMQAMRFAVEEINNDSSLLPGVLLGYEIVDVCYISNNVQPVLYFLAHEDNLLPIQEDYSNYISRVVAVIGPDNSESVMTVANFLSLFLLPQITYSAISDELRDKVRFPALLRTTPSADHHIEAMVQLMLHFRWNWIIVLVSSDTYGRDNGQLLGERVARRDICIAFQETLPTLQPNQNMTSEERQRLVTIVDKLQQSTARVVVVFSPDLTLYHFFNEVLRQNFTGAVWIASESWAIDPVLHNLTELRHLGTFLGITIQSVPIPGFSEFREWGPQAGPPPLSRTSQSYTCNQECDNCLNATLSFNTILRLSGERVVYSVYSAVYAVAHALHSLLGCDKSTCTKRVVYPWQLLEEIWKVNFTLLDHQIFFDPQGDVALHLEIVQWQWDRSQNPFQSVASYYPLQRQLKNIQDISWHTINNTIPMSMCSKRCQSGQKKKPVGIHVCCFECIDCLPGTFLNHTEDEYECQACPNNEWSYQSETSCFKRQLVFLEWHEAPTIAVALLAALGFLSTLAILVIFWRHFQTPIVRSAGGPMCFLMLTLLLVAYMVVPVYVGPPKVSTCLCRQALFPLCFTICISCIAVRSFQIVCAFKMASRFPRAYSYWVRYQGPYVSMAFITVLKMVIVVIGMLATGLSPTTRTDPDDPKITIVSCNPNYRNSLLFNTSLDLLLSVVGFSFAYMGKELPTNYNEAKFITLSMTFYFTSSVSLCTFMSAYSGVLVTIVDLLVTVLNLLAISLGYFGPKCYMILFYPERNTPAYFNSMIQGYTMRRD
T2 sequence (Q7RTX0 21-852): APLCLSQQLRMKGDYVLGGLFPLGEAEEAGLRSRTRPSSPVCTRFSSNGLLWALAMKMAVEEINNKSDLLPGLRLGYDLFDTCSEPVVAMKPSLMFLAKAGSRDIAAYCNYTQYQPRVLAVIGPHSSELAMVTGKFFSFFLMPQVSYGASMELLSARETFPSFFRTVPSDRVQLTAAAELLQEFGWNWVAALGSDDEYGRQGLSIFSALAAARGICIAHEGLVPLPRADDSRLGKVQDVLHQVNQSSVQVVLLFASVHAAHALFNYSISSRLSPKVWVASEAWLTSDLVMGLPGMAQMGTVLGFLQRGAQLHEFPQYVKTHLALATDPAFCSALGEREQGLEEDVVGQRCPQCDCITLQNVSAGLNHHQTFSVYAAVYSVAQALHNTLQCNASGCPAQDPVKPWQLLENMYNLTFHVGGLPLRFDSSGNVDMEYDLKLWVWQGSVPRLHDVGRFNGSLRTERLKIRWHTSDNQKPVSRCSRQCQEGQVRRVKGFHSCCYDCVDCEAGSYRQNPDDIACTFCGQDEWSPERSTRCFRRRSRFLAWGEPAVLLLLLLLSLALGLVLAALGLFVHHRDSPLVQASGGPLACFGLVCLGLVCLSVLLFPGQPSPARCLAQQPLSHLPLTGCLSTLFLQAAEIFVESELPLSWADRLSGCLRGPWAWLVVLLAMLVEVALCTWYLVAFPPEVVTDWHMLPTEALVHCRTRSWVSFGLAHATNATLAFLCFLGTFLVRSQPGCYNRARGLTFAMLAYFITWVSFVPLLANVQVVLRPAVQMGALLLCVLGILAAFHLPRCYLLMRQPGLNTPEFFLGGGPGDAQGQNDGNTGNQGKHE


Assays:
[1] = molecular target: T1, human TAS1R2-C9S/TAS1R3-WT; assay: Calcium mobilisation assay, TAS1R2 variant C9S with TAS1R3-WT; assay type: cell-based; details: for Max ΔF/F0: maximal signal amplitude
Text: (§1) The coding sequences for TAS1R2 and TAS1R3 were commercially synthesised, and the human codon was optimised for expression in human cells. The coding sequences of human TAS1R2 and TAS1R3 were subcloned and inserted into the mammalian expression vectors pcDNA6/myc-HisA and pcDNA4/myc-HisA (Invitrogen; Thermo Fisher Scientific; Illkirch, France) between the EcoRI and NotI restriction sites, generating the plasmids pcDNA6-TAS1R2 and pcDNA4-TAS1R3, respectively. To increase protein expression in mammalian cells, an upstream start codon was used, which was a sequence called MAX, corresponding to the QBI SP163 element also described in pcDNA4-HisMax (Invitrogen; Thermo Fisher Scientific; Illkirch, France). To measure the expression level of the receptor by immunohistochemistry, we used the FLAG sequence ([…]) in the C-terminal position, which encodes the FLAG tag epitope. SNP variants of TAS1R2 and TAS1R3 were constructed based on […], respectively, using site-directed mutagenesis (Genewiz; Leipzig, Germany).
(§2) The HEK293T cells were kindly provided by Jay P. Slack (Givaudan Flavors Corporation; Cincinnati, OH, USA). HEK293T cells stably transfected with Gα16gust44 [43, 67] were seeded in poly-D-lysine-coated clear-bottom black 96-well plates (0.35 × 10^5 cells/well) in high-glucose DMEM supplemented with 2 mM GlutaMAX, 10% dialysed foetal bovine serum with penicillin/streptomycin and G418 (400 μg/mL) at 37 °C and 6.3% CO2 in a humidified atmosphere as previously reported. […] As a negative control, HEK293T cells were mock-transfected with the empty expression vector. After a further 24 h of incubation, the HEK293T cells were washed with C1 buffer (130 mM NaCl, 5 mM KCl, 10 mM HEPES pH 7.4 and 2 mM CaCl2). The 96-well plates containing the cells were then stimulated with sweet-tasting compounds. […] Different concentration ranges were tested depending on the sweet compound injected. The Ca^2+ changes were expressed as fractional changes in fluorescent light intensity: ΔF/F = (F − F0)/F0, where F was the fluorescent light intensity at each point, and F0 was the value of emitted fluorescent light prior to stimulus application. To calculate dose–response relationships, the changes in fluorescence upon stimulus application were averaged, mock-subtracted and baseline-corrected. The dose–response data obtained were adjusted using a 4-parameter logistic equation. The half-maximal effective concentrations (EC50 values) and maximal signal amplitudes were calculated using SigmaPlot software (version 15.0) (Systat Software; San Jose, CA, USA).
(§3) For in vitro calcium mobilisation assay performed on hTAS1R2-SNPs, hTAS1R3-SNPs and mTAS1R3-I60T, 6 to 7 concentrations were tested for each sweet compound, plus buffer alone. All concentration–receptor combinations were measured in duplicate, and each experiment was repeated at least 4 times (8 wells/concentration). Results were expressed for each concentration as ΔF/F mean ± SEM and represented as dose–response curves.

[2] = molecular target: T2, human TAS1R2-WT/TAS1R3-WT; assay: Calcium mobilisation assay, HEK293T-Gα16gust44 cells, human sweet taste receptor WT; assay type: cell-based; details: for Max ΔF/F0: maximal signal amplitude
Text: as §1, §2, §3

[3] = TAS1R2-WT + TAS1R3-WT, read-out: EC50
[4] = TAS1R2-WT/TAS1R3-WT, read-out: EC50

Molecule | EC50 [1] [µM] | R1 = Variant EC50/WT EC50 [1] | Max ΔF/F0 [1] | R1 = Variant EC50/WT EC50 ([2]; TAS1R2-WT + TAS1R3-WT) | Max ΔF/F0 ([2]; TAS1R2-WT + TAS1R3-WT) | EC50 [2, 3] [µM] | R1 = Variant EC50/WT EC50 ([2]; TAS1R2-WT/TAS1R3-WT) | Max ΔF/F0 ([2]; TAS1R2-WT/TAS1R3-WT) | EC50 [2, 4] [µM] | EC50 ([2]; TAS1R2-WT/TAS1R3-WT, brazzein) [µg/mL]
C=C(C)[C@@H]1CC=C(/C=N/O)CC1 [Perillartine, perillartine] | 17.8 ± 1.2 | 1.0 | 1.29 ± 0.03 | 1.0 | 1.47 ± 0.07 | 17.5 ± 2.2 | 1.0 | 1.51 ± 0.22 | 13.8 ± 6.3 | 
C=C1C[C@@]23CC[C@H]4[C@@](C)(CCC[C@@]4(C)C(=O)O[C@@H]4O[C@H](CO)[C@@H](O)[C@H](O[C@@H]5O[C@H](CO)[C@@H](O)[C@H](O)[C@H]5O)[C@H]4O[C@@H]4O[C@H](CO)[C@@H](O)[C@H](O)[C@H]4O)[C@@H]2CC[C@]1(O[C@@H]1O[C@H](CO)[C@@H](O)[C@H](O[C@@H]2O[C@H](CO)[C@@H](O)[C@H](O)[C@H]2O)[C@H]1O[C@@H]1O[C@H](CO)[C@@H](O)[C@H](O)[C@H]1O)C3 [Rebaudioside M, rebaudioside M] | 23.7 ± 1.6 | 1.4 | 1.18 ± 0.03 | 1.0 | 1.12 ± 0.01 | 16.9 ± 0.5 | 1.0 | 0.69 ± 0.02 | 40.4 ± 2.9 | 
OC[C@H]1O[C@H](O[C@]2(CCl)O[C@H](CCl)[C@@H](O)[C@@H]2O)[C@H](O)[C@@H](O)[C@H]1Cl [Sucralose] | 88 ± 15 | 1.0 | 0.72 ± 0.05 | 1.0 | 0.59 ± 0.03 | 90 ± 11 | 1.0 | 0.65 ± 0.01 | 109 ± 4 | 

Next, values leading:

EC50 [1] [µM] | R1 = Variant EC50/WT EC50 [1] | Max ΔF/F0 [1] | R1 = Variant EC50/WT EC50 ([2]; TAS1R2-WT + TAS1R3-WT) | Max ΔF/F0 ([2]; TAS1R2-WT + TAS1R3-WT) | EC50 [2, 3] [µM] | R1 = Variant EC50/WT EC50 ([2]; TAS1R2-WT/TAS1R3-WT) | Max ΔF/F0 ([2]; TAS1R2-WT/TAS1R3-WT) | EC50 [2, 4] [µM] | EC50 ([2]; TAS1R2-WT/TAS1R3-WT, brazzein) [µg/mL] | Molecule
 | 1.2 | 1.14 ± 0.03 | 1.0 | 1.17 ± 0.04 |  | 1.0 | 0.88 ± 0.03 |  | 112.8 ± 11.2 | brazzein (QDKCKKVYENYPVSKCQLANQCNYDCKLDKHARSGECFYDEKRNLQCICDYCEY; ends and bridges not checked; cysteine pairing not given here; UniProt P56552 1-54, looked up) [sweet-tasting protein obtained by recombinant production using the yeast Pichia pastoris]
 | 0.9 | 0.61 ± 0.01 | 1.0 | 0.72 ± 0.01 |  | 1.0 | 0.57 ± 0.02 |  |  | thaumatin
6.6 ± 0.1 |  |  |  |  | 7.6 ± 0.3 |  |  | 10.4 ± 0.6 |  | thaumatin (protein, Eight disulfides, sweet-tasting plant protein, E957) ATFEIVNRCSYTVWAAASKGDAALDAGGRQLNSGESWTINVEPGTKGGKIWARTDCYFDDSGSGICKTGDCGGLLRCKRFGRPPTTLAEFSLNQYGKDYIDISNIKGFNVPMDFSPTTRGCRGVRCAADIVGQCPAKLKAPGGGCNDACTVFQTSEYCCTTGKCGPTEYSRFFKRLCPDAFSYVLDKPTTVTCPGSSNYRVTFCPTA

— article PMC11945486, “TAS1R2/TAS1R3 Single-Nucleotide Polymorphisms Affect Sweet Taste Receptor Activation by Sweeteners: The SWEET Project” (Nutrients, 2025)
